Measurements reported in patent US10633338B2, “Binding Function 3 (BF3) site compounds as therapeutics and methods for their use” (THE UNIVERSITY OF BRITISH COLUMBIA, priority 2014, dated 2020).
Where two headings read alike, the source gives them in different places. Each block holds one compound with its values, some of them ahead of it.

Experiments:
[1] = target: T1, androgen receptor (AR) (Homo sapiens, UniProt P10275, T878A); assay: eGFP cellular AR transcription assay; assay type: cell-based
T1 construct: stably transfected eGFP-expressing LNCaP human prostate cancer cells (LN-ARR2PB-eGFP) containing an androgen responsive probasin-derived promoter; endogenous in cells; host or cells: LNCaP (LN-ARR2PB-eGFP)
T1 sequence (P10275 1-920 T878A): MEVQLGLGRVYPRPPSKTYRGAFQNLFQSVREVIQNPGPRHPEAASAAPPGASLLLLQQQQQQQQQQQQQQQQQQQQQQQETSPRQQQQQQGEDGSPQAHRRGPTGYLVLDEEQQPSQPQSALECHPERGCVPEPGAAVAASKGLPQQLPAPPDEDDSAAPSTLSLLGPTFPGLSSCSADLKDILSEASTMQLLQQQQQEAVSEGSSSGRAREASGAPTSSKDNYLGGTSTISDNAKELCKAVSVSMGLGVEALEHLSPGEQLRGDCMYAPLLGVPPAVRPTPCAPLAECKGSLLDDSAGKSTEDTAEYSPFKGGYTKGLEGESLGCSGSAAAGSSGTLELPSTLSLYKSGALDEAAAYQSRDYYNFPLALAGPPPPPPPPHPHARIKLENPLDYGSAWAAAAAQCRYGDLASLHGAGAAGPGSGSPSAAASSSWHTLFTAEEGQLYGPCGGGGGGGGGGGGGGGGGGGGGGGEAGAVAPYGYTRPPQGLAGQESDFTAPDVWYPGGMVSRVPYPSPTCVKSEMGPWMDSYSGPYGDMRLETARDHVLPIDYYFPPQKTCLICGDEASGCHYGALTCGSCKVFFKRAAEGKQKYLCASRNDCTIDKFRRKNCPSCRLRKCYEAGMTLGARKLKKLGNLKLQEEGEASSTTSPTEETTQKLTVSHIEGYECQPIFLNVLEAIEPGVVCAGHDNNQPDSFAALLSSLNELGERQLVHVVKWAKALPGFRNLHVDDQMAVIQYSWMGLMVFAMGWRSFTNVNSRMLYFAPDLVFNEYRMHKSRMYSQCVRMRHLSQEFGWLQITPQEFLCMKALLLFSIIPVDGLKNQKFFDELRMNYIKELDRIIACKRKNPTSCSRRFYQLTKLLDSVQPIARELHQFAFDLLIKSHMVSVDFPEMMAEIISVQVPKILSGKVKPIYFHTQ
Method: After 5 days, the cells were plated into a 96-well plate (35,000 cells/well) with 0.1 nM of the synthetic androgen R1881 and increasing concentrations (0-100 μM) of compound.
After 5 days, the cells were plated into a 96-well plate (35,000 cells/well) with 0.1 nM R1881 and increasing concentrations (0-100 μM) of compound.
In this assay, the expression of eGFP is under the control of an androgen responsive probasin-derived promoter and can quantify AR transcriptional activity.

[2] = system: PSA; assay: Prostate Surface Antigen (PSA) assay, PSA excreted into the media; assay type: cell-based, human
Method: The evaluation of PSA excreted into the media was performed in parallel to the eGFP assay using the same plates (see above description). After the cells were incubated for 3 days 150 μl of the media was taken from each well, and added to 150 μl of PBS.

[3] = LN-ARR2PBeGFP LNCaP cells, 0.1 nM R1881, 3 days incubation, read-out: eGFP IC50
[4] = Homo sapiens, 72 h, PSA excreted into media, same plates as eGFP assay, 3 days incubation, read-out: PSA IC50
[5] = LN-ARR2PB-eGFP LNCaP cells, 0.1 nM R1881, 3 days, 0-100 μM compound, read-out: IC50 (eGFP)
[6] = Homo sapiens, 72 h, same plates as eGFP assay, media after 3 days, read-out: IC50 (PSA)
[7] = LN-ARR2PB-eGFP LNCaP cells, 0.1 nM R1881, 3 days, 0-100 μM compound
[8] = same plates as eGFP assay, media after 3 days
[9] = LN-ARR2PBeGFP LNCaP cells, 0.1 nM R1881, 3 days incubation
[10] = PSA excreted into media, same plates as eGFP assay, 3 days incubation
[11] = PSA excreted into media, same plates as eGFP assay, 3 days incubation, read-out: PSA IC50

Compound: Brc1cccc2c(-c3ccc4ccccc4n3)c[nH]c12 [Compound 13621]
- IC50 [1, 3]: 20 nM
- IC50 [2, 4]: 8 nM

Compound: Cc1ccc2[nH]cc(-c3ccc4ccccc4n3)c2c1 [13 577]
- IC50 [1, 5]: 3200 nM
- IC50 [2, 6]: 1730 nM

Compound: FC(F)(F)c1ccc(-c2c[nH]c3ccccc23)nc1 [13 741]
- IC50 [1, 5]: 290 nM
- IC50 [2, 6]: 290 nM

Compound: Cc1cccc2c(-c3ccc4scnc4c3)c[nH]c12 [13 758]
- IC50 (eGFP) [1, 7]: IC50 (eGFP) = Inactive
- IC50 (PSA) [2, 8]: IC50 (PSA) = Inactive

Compound: Cc1ccc2[nH]cc(C3Nc4ccccc4C3(C)C)c2c1 (stereo not shown) [13 535]
- IC50 [1, 5]: 1500 nM
- IC50 [2, 6]: 1870 nM

Compound: CC1(C)C(c2c[nH]c3ncccc23)=Nc2ccccc21 [13 537]
- IC50 [1, 5]: 700 nM
- IC50 [2, 6]: 810 nM

Compound: Cc1cc(C)c2nc(-c3c[nH]c4c(C)c(F)ccc34)ccc2c1 [Compound 13636]
- eGFP IC50 [1, 9]: Inactive
- PSA IC50 [2, 10]: Inactive

Compound: Fc1ccc2c(-c3ccc4ccccc4n3)c[nH]c2c1 [13 576]
- IC50 [1, 5]: 144 nM
- IC50 [2, 6]: 48 nM

Compound: CC1(C)C(c2c[nH]c3c(O)cccc23)=Nc2ccccc21 [13 541]
- IC50 [1, 5]: 500 nM
- IC50 [2, 6]: 940 nM

Compound: Cc1cccc2c(-c3ccc4c(Br)cccc4n3)c[nH]c12 [Compound 13678]
- eGFP IC50 [1, 9]: Inactive
- PSA IC50 [2, 10]: Inactive

Compound: NC(=O)c1cccc2nc(-c3c[nH]c4c(F)cc(F)cc34)ccc12 [Compound 13747]
- eGFP IC50 [1, 9]: Inactive
- PSA IC50 [2, 10]: Inactive

Compound: Brc1ccc2[nH]cc(-c3ccc4ccccc4n3)c2c1 [13 683]
- IC50 [1, 5]: 2600 nM
- IC50 [2, 6]: 1910 nM

Compound: Cc1cccc2c(-c3ccc4c(C#N)cccc4n3)c[nH]c12 [Compound 13598]
- eGFP IC50 [1, 9]: Inactive
- PSA IC50 [2, 10]: Inactive

Compound: c1ccc(-c2cccc(-c3c[nH]c4ncccc34)c2)cc1 [13 734]
- IC50 [1, 5]: 11000 nM
- IC50 [2, 6]: 4130 nM

Compound: Fc1cc(Cl)c2[nH]cc(-c3ccc4c(Cl)cccc4n3)c2c1 [Compound 13669]
- eGFP IC50 [1, 9]: Inactive
- PSA IC50 [2, 10]: Inactive

Compound: Fc1cccc2nc(-c3c[nH]c4c(Br)cccc34)ccc12 [Compound 13714]
- eGFP IC50 [1, 9]: Inactive
- PSA IC50 [2, 10]: Inactive

Compound: c1ccc2ncc(-c3c[nH]c4ccncc34)cc2c1 [13 637]
- IC50 (eGFP) [1, 7]: IC50 (eGFP) = Inactive
- IC50 (PSA) [2, 8]: IC50 (PSA) = Inactive

Compound: Cc1cccc2c(-c3ccc4ncsc4c3)c[nH]c12 [Compound 13757]
- eGFP IC50 [1, 9]: Inactive
- PSA IC50 [2, 10]: Inactive

Compound: Cc1cccc2c(-c3ccc4ccccc4n3)c[nH]c12 [13 566]
- IC50 ([2]; Homo sapiens, 72 h, read-out: IC50 (PSA)): 56 nM

Compound: c1ccc(-c2nc3ccccc3[nH]2)cc1 [Compound 13686]
- PSA IC50 [2, 10]: Inactive

Compound: Cc1cccc2c(-c3ccc4cccc(Br)c4n3)c[nH]c12 [13 677]
- IC50 [2, 6]: 110 nM

Compound: Cc1cccc2c(-c3ccc4ccccc4n3)c[nH]c12 [Compound 13566]
- IC50 [2, 4]: 11 nM

Compound: c1ccc(-c2nc3ccccc3[nH]2)cc1 [13 686]
- IC50 (PSA) [2, 8]: IC50 (PSA) = Inactive

Compound: Clc1cccc2c(-c3ccc4ccccc4n3)c[nH]c12 [Compound 13622]
- IC50 [2, 4]: 75 nM

Compound: c1ccc2[nH]c(-c3n[nH]c4ccccc34)nc2c1 [Compound 13036]
- IC50 [1, 3]: 1600 nM

Next, values leading:

- IC50 [2, 4]: 87 nM
Compound: Cc1c(F)ccc2c(-c3ccc4ccccc4n3)c[nH]c12 [Compound 13607]

- IC50 [1, 3]: 890 nM
- IC50 [2, 4]: 990 nM
Compound: Fc1cc2[nH]cc(-c3ccc4cccc(C(F)(F)F)c4n3)c2cc1F [Compound 13682]

- IC50 [2, 4]: 1160 nM
Compound: Clc1cc(Cl)c2[nH]cc(-c3ccc4ccccc4n3)c2c1 [Compound 13627]

- IC50 [1, 3]: 800 nM
- IC50 [2, 4]: 610 nM
Compound: c1ccc2ncc(-c3c[nH]c4ccccc34)cc2c1 [Compound 13628]

- IC50 [1, 3]: 1230 nM
- IC50 [2, 4]: 410 nM
Compound: Fc1ccc2[nH]cc(-c3cc4ccccc4[nH]3)c2c1 [Compound 13500]

- IC50 [1, 3]: 3210 nM
- IC50 [2, 4]: 4240 nM
Compound: Cc1ccc2[nH]cc(C3Nc4ccccc4C34CCCCC4)c2c1 (stereo not shown) [Compound 13548]

- IC50 [1, 3]: 29 nM
- IC50 [2, 4]: 29 nM
Compound: Fc1cccc2ccc(-c3c[nH]c4c(F)cccc34)nc12 [Compound 13697]

- IC50 [1, 5]: 45 nM
- IC50 [1, 3]: 45 nM
- IC50 [2, 4]: 20 nM
- IC50 [2, 6]: 20 nM
Compound: Cc1cccc2c(-c3nc(Br)cs3)c[nH]c12 [Compound 13766]

- IC50 [1, 3]: 770 nM
- IC50 [2, 4]: 670 nM
Compound: CN1c2ccccc2C[C@H]1c1c[nH]c2ccccc12 [Compound 13164-A]

- IC50 [1, 3]: 1440 nM
- IC50 [2, 4]: 813 nM
Compound: Cc1cc(F)c2[nH]cc(-c3ccc4ccccc4n3)c2c1 [Compound 13612]

- IC50 [1, 3]: 83 nM
- IC50 [2, 4]: 62 nM
Compound: O=[N+]([O-])c1cccc2c(-c3ccc(Br)cc3)c[nH]c12 [Compound 13738]

- IC50 [1, 3]: 230 nM
- IC50 [2, 4]: 250 nM
Compound: CNC(=O)c1cccc2nc(-c3c[nH]c4c(C)cc(F)cc34)ccc12 [Compound 13710]

- IC50 [1, 3]: 3810 nM
- IC50 [2, 4]: 919 nM
Compound: Cc1cccc2c(-c3ccc(-c4ccccc4)cc3)c[nH]c12 [Compound 13733]

- IC50 [1, 3]: 400 nM
- IC50 [2, 4]: 480 nM
Compound: CNC(=O)c1cccc2nc(-c3c[nH]c4ccccc34)ccc12 [Compound 13691]

- IC50 [1, 3]: 800 nM
- IC50 [2, 4]: 730 nM
Compound: N#C/C(=C\c1ccc(C(F)(F)F)cc1)c1c[nH]c2ccccc12 [Compound 13434]

- IC50 [1, 3]: 180 nM
- IC50 [2, 4]: 600 nM
Compound: CC1(C)c2ccccc2NC1c1c[nH]c2ccccc12 (stereo not shown) [Compound 13506]

- IC50 [1, 3]: 3700 nM
- IC50 [2, 4]: 3580 nM
Compound: Cc1[nH]c2ccccc2c1/N=N/c1ccccc1C(F)(F)F [Compound 13424]

- IC50 [2, 4]: 82 nM
Compound: Cc1cccc2c(-c3ccc4cccc(F)c4n3)c[nH]c12 [Compound 13692]

- IC50 [2, 4]: 13 nM
Compound: Fc1cc(F)c2[nH]cc(-c3ccc4ccccc4n3)c2c1 [Compound 13610]

- IC50 [2, 4]: 156 nM
Compound: Cc1cccc2c(-c3cnc4ccccc4c3)c[nH]c12 [Compound 13643]

- IC50 [2, 4]: 132 nM
Compound: CNC(=O)c1cccc2nc(-c3c[nH]c4c(C)cccc34)ccc12 [Compound 13597]

- IC50 [2, 4]: 25 nM
Compound: Fc1ccc2c(-c3ccc4ccccc4n3)c[nH]c2c1Cl [Compound 13642]

- IC50 [2, 4]: 130 nM
Compound: Fc1ccc2c(-c3ccc4ccccc4n3)c[nH]c2c1F [Compound 13618]

- IC50 [2, 4]: 430 nM
Compound: Cc1ccc(/N=C/c2c[nH]c3ccccc23)cc1 [Compound 13247]

- IC50 [2, 4]: 165 nM
Compound: Cc1cc(F)cc2c(-c3ccc4ccccc4n3)c[nH]c12 [Compound 13601]

- IC50 [2, 4]: 130 nM
Compound: Cc1cccc2c(-c3ccc4cccc(Cl)c4n3)c[nH]c12 [Compound 13593]

- IC50 [2, 4]: 42 nM
Compound: Fc1cc(Cl)c2[nH]cc(-c3ccc4ccccc4n3)c2c1 [Compound 13624]

- IC50 [2, 4]: 110 nM
Compound: Cc1cccc2c(-c3ccc4cccc(Br)c4n3)c[nH]c12 [Compound 13677]

- IC50 [2, 4]: 1230 nM
Compound: Cc1cc(Cl)c2[nH]cc(-c3ccc4ccccc4n3)c2c1 [Compound 13625]

- IC50 [2, 4]: 121 nM
Compound: Cc1cccc2c(-c3ccc4ccc(F)cc4n3)c[nH]c12 [Compound 13611]

- IC50 [2, 4]: 1430 nM
Compound: Cc1cccc2c(-c3ccc4ccc(Cl)cc4n3)c[nH]c12 [Compound 13606]

- IC50 [2, 4]: 383 nM
Compound: Fc1cc2c(-c3ccc4c(C(F)(F)F)cccc4n3)c[nH]c2c(F)c1F [Compound 13761]

- IC50 [2, 4]: 182 nM
Compound: Cc1cccc2c(-c3ccc4c(C(F)(F)F)cccc4n3)c[nH]c12 [Compound 13602]

- IC50 [2, 11]: 160 nM
Compound: Cc1cccc2c(-c3cnc4ccccc4c3)c[nH]c12 [Compound 13654]

- IC50 [2, 4]: 403 nM
Compound: Fc1cc(Cl)cc2c(-c3ccc4ccccc4n3)c[nH]c12 [Compound 13641]

- IC50 [2, 11]: 51 nM
Compound: CNC(=O)c1cccc2nc(-c3c[nH]c4c(F)c(F)c(F)cc34)ccc12 [Compound 13754]

- IC50 [1, 3]: 2700 nM
Compound: Cc1cccc2c1CCN2c1nc2ccccc2o1 [Compound 13260]
